This test addresses IGF1-receptor (Homo sapiens, UniProt P08069). In words: IGF1-Receptor Tyrosine Kinase Assay. The note with it: in vitro kinase; ATP 25 μM; read-out: IGF1R kinase IC50. Format: biochemical. Here is the method:
D. IGF1-Receptor Tyrosine Kinase Assay
The assays were performed in U-bottom 384-well plates. The final assay volume was 30 μl prepared from 15 μl additions of enzyme and substrates (fluoresceinated IGF1R substrate peptide and ATP) and test compounds in assay buffer (100 mM HEPES pH 7.4, 10 mM MnCl2, 0.015% Brij35 and 4 mM DTT). The reaction was initiated by the combination of IGF1-receptor with substrates and test compounds. The reaction was incubated at room temperature for 60 min. and terminated by adding 30 μl of 35 mM EDTA to each sample. The reaction mixture was analyzed on the Caliper LabChip 3000 by electrophoretic separation of the fluorescent substrate and phosphorylated product. Inhibition data were calculated by comparison to no enzyme control reactions for 100% inhibition and vehicle-only reactions for 0% inhibition. The final concentration of reagents in the assays is ATP, 25 μM; FL-peptide, 1.5 μM; IGF1-Receptor, 14 nM; and DMSO, 1.6%. Dose response curves were generated to determine the concentration required inhibiting 50% of kinase activity (IC50). Compounds were dissolved at 10 mM in dimethylsulfoxide (DMSO) and evaluated at eleven concentrations, each in duplicate. IC50 values were derived by non-linear regression analysis.

Sequence of IGF1-receptor (P08069 31-1367): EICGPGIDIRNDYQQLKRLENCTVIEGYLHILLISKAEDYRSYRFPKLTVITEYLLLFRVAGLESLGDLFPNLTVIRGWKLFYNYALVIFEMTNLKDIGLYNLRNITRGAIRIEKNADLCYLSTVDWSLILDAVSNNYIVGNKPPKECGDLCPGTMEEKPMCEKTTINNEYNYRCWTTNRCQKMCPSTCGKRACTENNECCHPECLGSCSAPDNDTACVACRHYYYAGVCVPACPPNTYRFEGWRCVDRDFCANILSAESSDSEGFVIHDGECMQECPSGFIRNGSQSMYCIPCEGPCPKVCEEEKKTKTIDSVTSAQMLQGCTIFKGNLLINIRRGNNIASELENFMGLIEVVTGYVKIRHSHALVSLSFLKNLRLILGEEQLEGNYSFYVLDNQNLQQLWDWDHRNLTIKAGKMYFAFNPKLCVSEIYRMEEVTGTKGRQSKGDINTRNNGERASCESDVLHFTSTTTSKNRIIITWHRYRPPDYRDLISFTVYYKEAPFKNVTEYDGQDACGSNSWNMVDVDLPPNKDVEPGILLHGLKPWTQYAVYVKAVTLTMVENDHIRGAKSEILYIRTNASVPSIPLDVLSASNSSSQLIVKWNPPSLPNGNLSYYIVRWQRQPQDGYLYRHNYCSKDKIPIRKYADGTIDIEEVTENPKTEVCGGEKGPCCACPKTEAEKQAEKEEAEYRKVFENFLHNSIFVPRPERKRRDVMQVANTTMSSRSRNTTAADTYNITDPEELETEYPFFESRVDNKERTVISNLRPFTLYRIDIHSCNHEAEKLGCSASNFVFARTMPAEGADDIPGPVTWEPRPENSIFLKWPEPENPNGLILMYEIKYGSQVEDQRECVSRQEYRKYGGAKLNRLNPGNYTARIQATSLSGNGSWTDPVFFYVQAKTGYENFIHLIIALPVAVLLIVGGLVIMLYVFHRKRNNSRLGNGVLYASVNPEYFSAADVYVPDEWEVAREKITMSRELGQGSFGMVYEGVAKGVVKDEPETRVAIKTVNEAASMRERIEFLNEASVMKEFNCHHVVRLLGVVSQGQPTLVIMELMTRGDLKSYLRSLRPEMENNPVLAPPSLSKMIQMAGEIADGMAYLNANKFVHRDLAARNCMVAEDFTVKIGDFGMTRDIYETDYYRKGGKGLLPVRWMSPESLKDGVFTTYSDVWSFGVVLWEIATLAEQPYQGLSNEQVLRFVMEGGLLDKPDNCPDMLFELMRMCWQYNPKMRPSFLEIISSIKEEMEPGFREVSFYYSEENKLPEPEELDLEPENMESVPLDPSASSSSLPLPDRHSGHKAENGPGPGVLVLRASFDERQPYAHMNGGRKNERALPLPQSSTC

Turning to `Cc1cnc(NC(=O)[C@]2(C)C[C@H](O)CN2c2nc(Nc3cc(C4CC4)[nH]n3)nc(N3CCOCC3)n2)s1` [Example 105, (2S,4S)-1-(4-(5-Cyclopropyl-1H-pyrazol-3-ylamino)-6-morpholino-1,3,5-triazin-2-yl)-4-hydroxy-2-methyl-N-(5-methylthiazol-2-yl)pyrrolidine-2-carboxamide], the half-maximal inhibitory concentration (IC50) (usually the concentration needed to halve the response being measured) is 89 nM. Next, `CO[C@H]1C[C@@H](C(=O)N[C@@H]2CCCN(C)C2)N(c2nc(Nc3cc(C4CC4)[nH]n3)nc(N3CCOCC3)n2)C1` [Example 113, (2S,4S)-1-(4-(5-Cyclopropyl-1H-pyrazol-3-ylamino)-6-morpholino-1,3,5-triazin-2-yl)-4-methoxy-N—((R)-1-methylpiperidin-3-yl)pyrrolidine-2-carboxamide]: 7 nM; `CN1CCN(c2nc(Nc3cc(C4CC4)n[nH]3)nc(N3CC(F)(F)C[C@H]3C(=O)Nc3cnccn3)n2)CC1` [Example 117, (S)-1-(4-(3-Cyclopropyl-1H-pyrazol-5-ylamino)-6-(4-methylpiperazin-1-yl)-1,3,5-triazin-2-yl)-4,4-difluoro-N-(pyrazin-2-yl)pyrrolidine-2-carboxamide]: 7 nM; `CN1CC2CC1CN2c1nc(Nc2cc(C3CC3)[nH]n2)nc(N2C[C@@H](O)C[C@@]2(C)C(=O)Nc2nccs2)n1` (stereo partly drawn) [Example 104, (2S,4S)-1-(4-(5-Cyclopropyl-1H-pyrazol-3-ylamino)-6-(5-methyl-2,5-diazabicyclo[2.2.1]heptan-2-yl)-1,3,5-triazin-2-yl)-4-hydroxy-2-methyl-N-(thiazol-2-yl)pyrrolidine-2-carboxamide]: 43 nM.

With `COCCN1CCN(c2nc(Nc3cc(C4CC4)n[nH]3)nc(N3C[C@@H](O)C[C@H]3C(=O)Nc3cnccn3)n2)CC1` [Example 87, (2S,4S)-1-(4-(3-Cyclopropyl-1H-pyrazol-5-ylamino)-6-(4-(2-methoxyethyl)piperazin-1-yl)-1,3,5-triazin-2-yl)-4-hydroxy-N-(pyrazin-2-yl)pyrrolidine-2-carboxamide], the IC50 was 2 nM. Take `CO[C@H]1C[C@@H](C(=O)Nc2cnccn2)N(c2nc(NCCN(C)C)nc(Nc3cc(C4CC4)n[nH]3)n2)C1` [Example 27, (2S,4S)-1-(4-(3-Cyclopropyl-1H-pyrazol-5-ylamino)-6-(2-(dimethylamino)ethylamino)-1,3,5-triazin-2-yl)-4-methoxy-N-(pyrazin-2-yl)pyrrolidine-2-carboxamide]: the IC50 was 7 nM.

As for `COCCN1CCN(c2nc(Nc3cc(C4CC4)n[nH]3)nc(N3C[C@@H](OC)C[C@H]3C(=O)Nc3cnccn3)n2)CC1` [Example 25, (2S,4S)-1-(4-(3-Cyclopropyl-1H-pyrazol-5-ylamino)-6-(4-(2-methoxyethyl)piperazin-1-yl)-1,3,5-triazin-2-yl)-4-methoxy-N-(pyrazin-2-yl)pyrrolidine-2-carboxamide], the IC50 was 3 nM.

On to `O=C(Nc1cnccn1)[C@@H]1CC(F)(F)CN1c1nc(Nc2cc(C3CC3)n[nH]2)nc(N2CCN(CCO)CC2)n1` [Example 119, (S)-1-(4-(3-Cyclopropyl-1H-pyrazol-5-ylamino)-6-(4-(2-hydroxyethyl)piperazin-1-yl)-1,3,5-triazin-2-yl)-4,4-difluoro-N-(pyrazin-2-yl)pyrrolidine-2-carboxamide], for which the half-inhibitory concentration (IC50) is 3 nM. Consider `CO[C@H]1C[C@@H](C(=O)Nc2ccc(F)nc2)N(c2nc(Nc3cc(C4CC4)n[nH]3)nc(N3CCOCC3)n2)C1` [Example 62, (2S,4S)-1-(4-(3-Cyclopropyl-1H-pyrazol-5-ylamino)-6-morpholino-1,3,5-triazin-2-yl)-N-(6-fluoropyridin-3-yl)-4-methoxypyrrolidine-2-carboxamide], for which the IC50 was 2 nM. For the compound `O=C(Nc1ncns1)[C@@H]1C[C@@H](F)CN1c1nc(Nc2cc(C3CC3)n[nH]2)nc(N2CCOCC2)n1` [Example 82, (2S,4R)-1-(4-(3-Cyclopropyl-1H-pyrazol-5-ylamino)-6-morpholino-1,3,5-triazin-2-yl)-4-fluoro-N-(1,2,4-thiadiazol-5-yl)pyrrolidine-2-carboxamide], the 50% inhibitory concentration (IC50) came out at 7 nM. On to `CO[C@H]1C[C@@H](C(=O)Nc2cnccn2)N(c2nc(Nc3cc(C4CC4)[nH]n3)nc(-n3nc(C4CC4)cc3N)n2)C1` [Example 58, (2S,4S)-1-(4-(5-Amino-3-cyclopropyl-1H-pyrazol-1-yl)-6-(5-cyclopropyl-1H-pyrazol-3-ylamino)-1,3,5-triazin-2-yl)-4-methoxy-N-(pyrazin-2-yl)pyrrolidine-2-carboxamide], for which the IC50 came out at 95 nM. With `CN1CCN(c2nc(Nc3cc(C4CC4)n[nH]3)nc(N3[C@H](C(=O)Nc4cnccn4)C[C@@H]4C[C@@H]43)n2)CC1` [Example 122, (1S,3S,5S)-2-(4-(3-Cyclopropyl-1H-pyrazol-5-ylamino)-6-(4-methylpiperazin-1-yl)-1,3,5-triazin-2-yl)-N-(pyrazin-2-yl)-2-azabicyclo[3.1.0]hexane-3-carboxamide] the figure was 7 nM; with `CO[C@H]1C[C@@H](C(=O)Nc2cnccn2)N(c2nc(Nc3cc(C4CC4)n[nH]3)nc(N3CCN(S(C)(=O)=O)CC3)n2)C1` [Example 46, (2S,4S)-1-(4-(3-Cyclopropyl-1H-pyrazol-5-ylamino)-6-(4-(methylsulfonyl)piperazin-1-yl)-1,3,5-triazin-2-yl)-4-methoxy-N-(pyrazin-2-yl)pyrrolidine-2-carboxamide], 3 nM; with `CO[C@H]1C[C@@H](C(=O)Nc2cnccn2)N(c2nc(Nc3cc(C4CC4)[nH]n3)nc(N3CCSCC3)n2)C1` [Example 34, (2S,4S)-1-(4-(5-Cyclopropyl-1H-pyrazol-3-ylamino)-6-thiomorpholino-1,3,5-triazin-2-yl)-4-methoxy-N-(pyrazin-2-yl)pyrrolidine-2-carboxamide], 3 nM.

Turning to `COc1nc(Nc2cc(C3CC3)[nH]n2)nc(N2C[C@@H](OC)C[C@H]2C(=O)Nc2cnccn2)n1` [Example 20, (2S,4S)-1-(4-(5-Cyclopropyl-1H-pyrazol-3-ylamino)-6-methoxy-1,3,5-triazin-2-yl)-4-methoxy-N-(pyrazin-2-yl)pyrrolidine-2-carboxamide], the 50% inhibitory concentration (IC50) was 7 nM.

Regarding `COCCN1CCN(c2nc(Nc3cc(C4CC4)[nH]n3)nc(N3C[C@@H](O)C[C@@]3(C)C(=O)Nc3nccs3)n2)CC1` [Example 103, (2S,4S)-1-(4-(5-Cyclopropyl-1H-pyrazol-3-ylamino)-6-(4-(2-methoxyethyl)piperazin-1-yl)-1,3,5-triazin-2-yl)-4-hydroxy-2-methyl-N-(thiazol-2-yl)pyrrolidine-2-carboxamide], the IC50 came to 108 nM.

As for `O=C(N[C@H]1CCCN(c2nc(Nc3cc(C4CC4)n[nH]3)nc(N3C[C@H](F)C[C@H]3C(=O)Nc3cnccn3)n2)C1)C1CC1` [Example 72, (2S,4R)-1-(4-((S)-3-(Cyclopropanecarboxamido)piperidin-1-yl)-6-(3-cyclopropyl-1H-pyrazol-5-ylamino)-1,3,5-triazin-2-yl)-4-fluoro-N-(pyrazin-2-yl)pyrrolidine-2-carboxamide], the IC50 is 56 nM. As to `CN1CCN(c2nc(Nc3cc(C4CC4)[nH]n3)nc(N3C[C@@H](O)C[C@@]3(C)C(=O)Nc3nccs3)n2)CC1` [Example 102, (2S,4S)-1-(4-(5-Cyclopropyl-1H-pyrazol-3-ylamino)-6-(4-methylpiperazin-1-yl)-1,3,5-triazin-2-yl)-4-hydroxy-2-methyl-N-(thiazol-2-yl)pyrrolidine-2-carboxamide], the half-inhibitory concentration (IC50) was determined as 44 nM.

Source of the values: patent publication US8415340B2, “Triazine kinase inhibitors” (Bristol-Myers Squibb Company, priority 2007, dated 2013).
